Laboratory results: the supplement of paper PMC10307832

Experiments:
Experiment in all cases: relative viability (nuclei count vs DMSO), 5 days (fraction); higher = more cells survive
[1] = compound: COc1cc2c(Oc3ccc4[nH]c(C)cc4c3F)ncnc2cc1OCCCN1CCCC1 [Cediranib] + Nc1nc2[nH]cc(CCc3ccc(C(=O)N[C@@H](CCC(=O)O)C(=O)O)cc3)c2c(=O)[nH]1 [Pemetrexed] (partner 0.2 µM)
Procedure, shortened: (§1)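 Medians of duplicate plates are given as relative viability. That measure is the nuclei count in treated wells divided by the count in vehicle wells. Counts were taken on 4× images of lung cancer cell lines in 1536-well plates, 5 days after pin-tool dosing the day after seeding with one drug alone or a fixed anchor-drug dose plus five library-drug doses (not always all listed) in √10 steps.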

[2] = compound: COc1cc2c(Oc3ccc4[nH]c(C)cc4c3F)ncnc2cc1OCCCN1CCCC1 [Cediranib] + Nc1ncn([C@H]2C[C@H](O)[C@@H](CO)O2)c(=O)n1 [Decitabine] (partner 2 µM)
Procedure, shortened: as §1

[3] = compound: Nc1ncn([C@H]2C[C@H](O)[C@@H](CO)O2)c(=O)n1 [Decitabine] + Cc1cc(Nc2cc(N3CCN(C)CC3)nc(Sc3ccc(NC(=O)C4CC4)cc3)n2)n[nH]1 [Tozasertib] (partner 0.1 µM)
Procedure, shortened: as §1

[4] = compound: O=C(C[C@H]1NCCC[C@@H]1O)Cn1cnc2cc(Br)c(Cl)cc2c1=O (racemic) [Halofuginone] + CC(C)C[C@H](NC(=O)[C@H](Cc1ccccc1)NC(=O)c1cnccn1)B(O)O [Bortezomib] (partner 0.002 µM)
Procedure, shortened: as §1

Row | Cell Line | relative viability ([1]; first compound 0.04 µM) | relative viability ([1]; first compound 0.1265 µM) | relative viability ([1]; first compound 0.4 µM) | relative viability ([1]; first compound 1.265 µM) | relative viability ([1]; first compound 4 µM) | relative viability ([2]; first compound 0.04 µM) | relative viability ([2]; first compound 0.1265 µM) | relative viability ([2]; first compound 0.4 µM) | relative viability ([2]; first compound 1.265 µM) | relative viability ([2]; first compound 4 µM) | relative viability ([3]; first compound 0.04 µM) | relative viability ([3]; first compound 0.1265 µM) | relative viability ([3]; first compound 0.4 µM) | relative viability ([3]; first compound 1.265 µM) | relative viability ([3]; first compound 4 µM) | relative viability ([4]; first compound 0.001 µM) | relative viability ([4]; first compound 0.003162 µM) | relative viability ([4]; first compound 0.01 µM) | relative viability ([4]; first compound 0.03162 µM) | relative viability ([4]; first compound 0.1 µM)
1 | LC-2-ad | 0.289 | 0.3 | 0.278 | 0.298 | 0.275 | 0.803 | 0.779 | 0.784 | 0.744 | 0.822 | 0.479 | 0.419 | 0.299 | 0.334 | 0.371 | 1.3 | 1.08 | 0.972 | 1.01 | 0.667
2 | LCLC-97TM1 | 0.205 |  | 0.154 | 0.218 | 0.177 | 0.234 |  | 0.223 | 0.196 | 0.248 | 0.167 | 0.17 | 0.129 | 0.11 | 0.0997 | 0.49 | 0.365 | 0.512 | 0.144 | 0.179
3 | LCLC-103H | 0.502 | 0.477 | 0.514 | 0.427 | 0.475 | 0.789 | 0.815 | 0.781 | 0.731 | 0.761 | 0.485 | 0.463 | 0.308 | 0.369 | 0.253 | 1.06 | 0.9 | 1.1 | 0.956 | 1.03
4 | LOU-NH91 | 0.447 | 0.347 | 0.357 | 0.337 | 0.36 | 0.787 | 0.831 | 0.81 | 0.792 | 0.8 | 0.444 | 0.606 | 0.522 | 0.464 | 0.512 | 0.461 | 0.498 | 0.484 | 0.459 | 0.535
5 | LU99A | 0.173 |  | 0.172 | 0.2 | 0.17 | 0.936 |  | 0.844 | 0.863 | 0.936 | 0.32 | 0.255 | 0.291 | 0.252 | 0.219 | 1.15 | 1.1 | 1.07 | 1.14 | 0.8
6 | LXF-289 | 1.1 |  | 0.8 | 0.936 | 0.863 | 0.397 |  | 0.371 | 0.385 | 0.411 | 0.151 | 0.162 | 0.119 | 0.0869 | 0.0957 | 0.928 | 1.08 | 0.985 | 0.996 | 0.908
7 | NCI-H23 | 0.602 | 0.693 | 0.525 | 0.692 | 0.699 | 0.327 | 0.355 | 0.31 | 0.312 | 0.339 | 0.256 | 0.199 | 0.152 | 0.195 | 0.172 | 1 | 1.24 | 1.02 | 0.947 | 0.494
8 | NCI-H322M | 0.64 | 0.684 | 0.592 | 0.648 | 0.572 | 0.606 | 0.837 | 0.715 | 0.688 | 0.654 | 0.415 | 0.484 | 0.426 | 0.35 | 0.376 | 1.16 | 1.13 | 1.28 | 1.16 | 0.997
9 | NCI-H441 | 0.265 | 0.291 | 0.258 | 0.271 | 0.257 | 0.288 | 0.234 | 0.275 | 0.251 | 0.286 | 0.296 | 0.269 | 0.208 | 0.234 | 0.317 | 0.456 | 0.457 | 0.6 | 0.491 | 0.433
10 | NCI-H460 | 0.0716 | 0.0662 | 0.0685 | 0.0585 | 0.0931 | 0.505 | 0.47 | 0.485 | 0.479 | 0.587 | 0.325 | 0.24 | 0.27 | 0.0551 | 0.0621 | 1.07 | 1.09 | 0.922 | 0.66 | 0.0555
11 | NCI-H520 | 0.668 | 0.789 | 0.623 | 0.602 | 0.563 | 0.572 | 0.588 | 0.502 | 0.488 | 0.459 | 0.402 | 0.444 | 0.386 | 0.352 | 0.308 | 0.723 | 0.721 | 0.494 | 0.579 | 0.314
12 | NCI-H596 | 0.472 | 0.499 | 0.427 | 0.476 | 0.525 | 1.04 | 1.1 | 0.978 | 0.918 | 1.18 | 0.733 | 0.87 |  | 0.526 | 0.466 | 1 | 1.01 | 0.934 | 1.01 | 0.698
13 | NCI-H647 | 0.185 | 0.254 | 0.2 | 0.178 | 0.172 | 0.415 | 0.414 | 0.448 | 0.349 | 0.405 | 0.262 | 0.192 | 0.172 | 0.0834 | 0.105 | 1.2 | 1.1 | 0.833 | 0.912 | 0.367
14 | NCI-H650 | 0.862 | 0.569 | 0.955 | 0.978 | 1.08 | 0.315 | 0.271 | 0.302 | 0.302 | 0.348 | 0.562 | 0.468 | 0.372 | 0.264 | 0.245 | 0.903 | 0.877 | 0.717 | 0.694 | 0.576
15 | NCI-H661 | 0.974 | 0.927 | 0.935 | 0.891 | 1.03 | 0.663 | 0.598 | 0.529 | 0.531 | 0.588 | 0.345 | 0.33 | 0.341 | 0.318 | 0.348 | 0.848 | 0.826 | 0.845 | 0.822 | 0.536
16 | NCI-H838 | 0.252 | 0.241 | 0.229 | 0.257 | 0.231 | 0.497 | 0.376 | 0.432 | 0.383 | 0.506 | 0.196 | 0.236 | 0.188 | 0.191 | 0.176 | 1.16 | 1.03 | 0.746 | 0.614 | 0.121
